≈ marks a conversion by molar mass, not a printed value.
Assays:
Test in all cases: In vitro MIC, 2010 surveillance isolates
E. coli ESBL− = assay type: cell-based, Escherichia coli
E. coli ESBL+ = assay type: cell-based, Escherichia coli
K. pneumoniae ESBL+ = assay type: cell-based, Klebsiella pneumoniae
K. oxytoca = assay type: cell-based
E. cloacae CeftazS = assay type: cell-based
E. cloacae CeftazR = assay type: cell-based
Enterobacter spp = assay type: cell-based
A. baumanii = assay type: cell-based
Acinetobacter spp = assay type: cell-based; conditions: for range of MICs (N <10, shown instead of MIC90): N=9
MSSA = assay type: cell-based
MRSA = assay type: cell-based
MS CoNS = assay type: cell-based, Coagulase-Negative Staphylococcus; conditions: for % R (resistance): Eucast breakpoints
MR CoNS = assay type: cell-based, Coagulase-Negative Staphylococcus; conditions: for % R (resistance): Eucast breakpoints
E. faecalis VS = assay type: cell-based
E. faecalis VNS = assay type: cell-based
E. faecium VS = assay type: cell-based
E. faecium VNS = assay type: cell-based

## CN(C)c1cc(NC(=O)CNC(C)(C)C)c(O)c2c1C[C@H]1C[C@H]3[C@H](N(C)C)C(O)=C(C(N)=O)C(=O)[C@@]3(O)C(O)=C1C2=O [Tigecycline]
E. coli ESBL−; Asia/Pac, Eucast breakpoints
  % R (resistance): 0%
E. coli ESBL−; Asia/Pac, N=282
  MIC90: 0.25 µg/mL (≈ 0.427 µM)
E. coli ESBL−; Europe, Eucast breakpoints
  % R (resistance): 0%
E. coli ESBL−; Europe, N=1533
  MIC90: 0.25 µg/mL (≈ 0.427 µM)
E. coli ESBL−; L. Amer, CLSI breakpoints
  % R (resistance): 0%
E. coli ESBL−; L. Amer, N=389
  MIC90: 0.25 µg/mL (≈ 0.427 µM)
E. coli ESBL−; N America, CLSI breakpoints
  % R (resistance): 0%
E. coli ESBL−; N America, N=1172
  MIC90: 0.25 µg/mL (≈ 0.427 µM)
E. coli ESBL+; Asia/Pac, Eucast breakpoints
  % R (resistance): 0%
E. coli ESBL+; Asia/Pac, N=219
  MIC90: 0.25 µg/mL (≈ 0.427 µM)
E. coli ESBL+; Europe, Eucast breakpoints
  % R (resistance): 0%
E. coli ESBL+; Europe, N=274
  MIC90: 0.5 µg/mL (≈ 0.854 µM)
E. coli ESBL+; L. Amer, CLSI breakpoints
  % R (resistance): 0%
E. coli ESBL+; L. Amer, N=168
  MIC90: 0.25 µg/mL (≈ 0.427 µM)
E. coli ESBL+; N America, CLSI breakpoints
  % R (resistance): 0%
E. coli ESBL+; N America, N=134
  MIC90: 0.25 µg/mL (≈ 0.427 µM)
K. pneumoniae ESBL+; Asia/Pac, Eucast breakpoints
  % R (resistance): 3.2%
K. pneumoniae ESBL+; Asia/Pac, N=124
  MIC90: 1 µg/mL (≈ 1.71 µM)
K. pneumoniae ESBL+; Europe, Eucast breakpoints
  % R (resistance): 0.7%
K. pneumoniae ESBL+; Europe, N=151
  MIC90: 1 µg/mL (≈ 1.71 µM)
K. pneumoniae ESBL+; L. Amer, CLSI breakpoints
  % R (resistance): 0%
K. pneumoniae ESBL+; L. Amer, N=209
  MIC90: 2 µg/mL (≈ 3.41 µM)
K. pneumoniae ESBL+; N America, CLSI breakpoints
  % R (resistance): 0%
K. pneumoniae ESBL+; N America, N=108
  MIC90: 2 µg/mL (≈ 3.41 µM)
K. oxytoca; Asia/Pac, Eucast breakpoints
  % R (resistance): 5.9%
K. oxytoca; Asia/Pac, N=17
  MIC90: 0.5 µg/mL (≈ 0.854 µM)
K. oxytoca; Europe, Eucast breakpoints
  % R (resistance): 0%
K. oxytoca; Europe, N=158
  MIC90: 0.5 µg/mL (≈ 0.854 µM)
K. oxytoca; L. Amer, CLSI breakpoints
  % R (resistance): 0%
K. oxytoca; L. Amer, N=25
  MIC90: 1 µg/mL (≈ 1.71 µM)
K. oxytoca; N America, CLSI breakpoints
  % R (resistance): 0%
K. oxytoca; N America, N=177
  MIC90: 0.5 µg/mL (≈ 0.854 µM)
E. cloacae CeftazS; Asia/Pac, Eucast breakpoints
  % R (resistance): 2%
E. cloacae CeftazS; Asia/Pac, N=100
  MIC90: 0.5 µg/mL (≈ 0.854 µM)
E. cloacae CeftazS; Europe, Eucast breakpoints
  % R (resistance): 0%
E. cloacae CeftazS; Europe, N=183
  MIC90: 0.5 µg/mL (≈ 0.854 µM)
E. cloacae CeftazS; L. Amer, CLSI breakpoints
  % R (resistance): 0%
E. cloacae CeftazS; L. Amer, N=57
  MIC90: 1 µg/mL (≈ 1.71 µM)
E. cloacae CeftazS; N America, CLSI breakpoints
  % R (resistance): 0%
E. cloacae CeftazS; N America, N=210
  MIC90: 0.5 µg/mL (≈ 0.854 µM)
E. cloacae CeftazR; Asia/Pac, Eucast breakpoints
  % R (resistance): 1.6%
E. cloacae CeftazR; Asia/Pac, N=63
  MIC90: 0.5 µg/mL (≈ 0.854 µM)
E. cloacae CeftazR; Europe, Eucast breakpoints
  % R (resistance): 0%
E. cloacae CeftazR; Europe, N=72
  MIC90: 0.5 µg/mL (≈ 0.854 µM)
E. cloacae CeftazR; L. Amer, CLSI breakpoints
  % R (resistance): 0%
E. cloacae CeftazR; L. Amer, N=42
  MIC90: 1 µg/mL (≈ 1.71 µM)
E. cloacae CeftazR; N America, CLSI breakpoints
  % R (resistance): 0%
E. cloacae CeftazR; N America, N=77
  MIC90: 2 µg/mL (≈ 3.41 µM)
Enterobacter spp; Asia/Pac, Eucast breakpoints
  % R (resistance): 3.8%
Enterobacter spp; Asia/Pac, N=52
  MIC90: 1 µg/mL (≈ 1.71 µM)
Enterobacter spp; Europe, Eucast breakpoints
  % R (resistance): 1.2%
Enterobacter spp; Europe, N=82
  MIC90: 1 µg/mL (≈ 1.71 µM)
Enterobacter spp; L. Amer, CLSI breakpoints
  % R (resistance): 0%
Enterobacter spp; L. Amer, N=42
  MIC90: 0.5 µg/mL (≈ 0.854 µM)
Enterobacter spp; N America, CLSI breakpoints
  % R (resistance): 0%
Enterobacter spp; N America, N=101
  MIC90: 0.5 µg/mL (≈ 0.854 µM)
A. baumanii; Asia/Pac, N=275
  MIC90: 1 µg/mL (≈ 1.71 µM)
A. baumanii; Europe, N=145
  MIC90: 2 µg/mL (≈ 3.41 µM)
A. baumanii; L. Amer, N=275
  MIC90: 2 µg/mL (≈ 3.41 µM)
A. baumanii; N America, N=154
  MIC90: 2 µg/mL (≈ 3.41 µM)
Acinetobacter spp; Asia/Pac
  range of MICs (N <10, shown instead of MIC90): ≤0.03-1
Acinetobacter spp; Europe, N=43
  MIC90: 2 µg/mL (≈ 3.41 µM)
Acinetobacter spp; L. Amer
  range of MICs (N <10, shown instead of MIC90): ≤0.03-2
Acinetobacter spp; N America, N=42
  MIC90: 0.5 µg/mL (≈ 0.854 µM)
MSSA; Asia/Pac, Eucast breakpoints
  % R (resistance): 0%
MSSA; Asia/Pac, N=641
  MIC90: 0.25 µg/mL (≈ 0.427 µM)
MSSA; Europe, Eucast breakpoints
  % R (resistance): 0%
MSSA; Europe, N=2109
  MIC90: 0.25 µg/mL (≈ 0.427 µM)
MSSA; L. Amer, CLSI breakpoints
  % R (resistance): 0%
MSSA; L. Amer, N=590
  MIC90: 0.25 µg/mL (≈ 0.427 µM)
MSSA; N America, CLSI breakpoints
  % R (resistance): 0%
MSSA; N America, N=2373
  MIC90: 0.25 µg/mL (≈ 0.427 µM)
MRSA; Asia/Pac, Eucast breakpoints
  % R (resistance): 0%
MRSA; Asia/Pac, N=428
  MIC90: 0.25 µg/mL (≈ 0.427 µM)
MRSA; Europe, Eucast breakpoints
  % R (resistance): 0%
MRSA; Europe, N=750
  MIC90: 0.25 µg/mL (≈ 0.427 µM)
MRSA; L. Amer, CLSI breakpoints
  % R (resistance): 0%
MRSA; L. Amer, N=506
  MIC90: 0.25 µg/mL (≈ 0.427 µM)
MRSA; N America, CLSI breakpoints
  % R (resistance): 0%
MRSA; N America, N=2508
  MIC90: 0.25 µg/mL (≈ 0.427 µM)
MS CoNS; Asia/Pac
  % R (resistance): 0%
MS CoNS; Asia/Pac, N=18
  MIC90: 0.25 µg/mL (≈ 0.427 µM)
MS CoNS; Europe
  % R (resistance): 0%
MS CoNS; Europe, N=185
  MIC90: 0.25 µg/mL (≈ 0.427 µM)
MS CoNS; L. Amer, N=67
  MIC90: 0.25 µg/mL (≈ 0.427 µM)
MS CoNS; N America, N=191
  MIC90: 0.25 µg/mL (≈ 0.427 µM)
MR CoNS; Asia/Pac
  % R (resistance): 0%
MR CoNS; Asia/Pac, N=77
  MIC90: 0.25 µg/mL (≈ 0.427 µM)
MR CoNS; Europe
  % R (resistance): 0%
MR CoNS; Europe, N=510
  MIC90: 0.25 µg/mL (≈ 0.427 µM)
MR CoNS; L. Amer, N=301
  MIC90: 0.25 µg/mL (≈ 0.427 µM)
MR CoNS; N America, N=461
  MIC90: 0.25 µg/mL (≈ 0.427 µM)
E. faecalis VS; Asia/Pac, Eucast breakpoints
  % R (resistance): 0%
E. faecalis VS; Asia/Pac, N=214
  MIC90: 0.25 µg/mL (≈ 0.427 µM)
E. faecalis VS; Europe, Eucast breakpoints
  % R (resistance): 0%
E. faecalis VS; Europe, N=669
  MIC90: 0.25 µg/mL (≈ 0.427 µM)
E. faecalis VS; L. Amer, CLSI breakpoints
  % R (resistance): 0%
E. faecalis VS; L. Amer, N=290
  MIC90: 0.25 µg/mL (≈ 0.427 µM)
E. faecalis VS; N America, CLSI breakpoints
  % R (resistance): 0%
E. faecalis VS; N America, N=863
  MIC90: 0.25 µg/mL (≈ 0.427 µM)
E. faecalis VNS; Asia/Pac, N=1
  range of MICs (N <10, shown instead of MIC90): 0.25
E. faecalis VNS; Europe, Eucast breakpoints
  % R (resistance): 0%
E. faecalis VNS; Europe, N=8
  range of MICs (N <10, shown instead of MIC90): ≤0.03-0.25
E. faecalis VNS; L. Amer, CLSI breakpoints
  % R (resistance): 0%
E. faecalis VNS; L. Amer, N=7
  range of MICs (N <10, shown instead of MIC90): ≤0.03-0.06
E. faecalis VNS; N America, CLSI breakpoints
  % R (resistance): 0%
E. faecalis VNS; N America, N=38
  MIC90: 0.25 µg/mL (≈ 0.427 µM)
E. faecium VS; Asia/Pac, Eucast breakpoints
  % R (resistance): 0%
E. faecium VS; Asia/Pac, N=106
  MIC90: 0.12 µg/mL (≈ 0.205 µM)
E. faecium VS; Europe, Eucast breakpoints
  % R (resistance): 0%
E. faecium VS; Europe, N=303
  MIC90: 0.12 µg/mL (≈ 0.205 µM)
E. faecium VS; L. Amer, CLSI breakpoints
  % R (resistance): 0%
E. faecium VS; L. Amer, N=51
  MIC90: 0.12 µg/mL (≈ 0.205 µM)
E. faecium VS; N America, CLSI breakpoints
  % R (resistance): 0%
E. faecium VS; N America, N=115
  MIC90: 0.25 µg/mL (≈ 0.427 µM)
E. faecium VNS; Asia/Pac, Eucast breakpoints
  % R (resistance): 0%
E. faecium VNS; Asia/Pac, N=24
  MIC90: 0.25 µg/mL (≈ 0.427 µM)
E. faecium VNS; Europe, Eucast breakpoints
  % R (resistance): 0%
E. faecium VNS; Europe, N=71
  MIC90: 0.25 µg/mL (≈ 0.427 µM)
E. faecium VNS; L. Amer, CLSI breakpoints
  % R (resistance): 0%
E. faecium VNS; L. Amer, N=41
  MIC90: 0.12 µg/mL (≈ 0.205 µM)
E. faecium VNS; N America, CLSI breakpoints
  % R (resistance): 0%
E. faecium VNS; N America, N=478
  MIC90: 0.25 µg/mL (≈ 0.427 µM)
